Among the data in ChEMBL document CHEMBL3507680, “University of Dundee, Gates Library screen for HepG2 cell viability” are cytotoxicity values, retold here.

The nature of the data set: Human HepG2 cell viability assay in 384 well format. Format: toxicity, cell-based. More on the design: dose 125 nL, time 70.5 hour; cytotoxicity at 70.5 h: concentration not given beside the values. The following applies: HepG2 cells, read-out: Inhibition.

Structures are written as SMILES.

For `CN(Cc1ccc(-n2ccnc2)cc1)CC1CCCN1c1cccnn1` (configuration not stated), the cytotoxicity at 70.5 h came out at 23%.
With `Cc1nc(CN2CCN(C(=O)c3sccc3C3CC3)CC2)oc1C`, the cytotoxicity at 70.5 h worked out at 12.6%.
Regarding `Cc1cc(C)n(CC2CCCN2C(=O)c2nccc3ccccc23)n1` (configuration not stated), the cytotoxicity at 70.5 h is -0.984%.
The result for `CCCn1[nH]cc/c1=N\C(=O)CN1CCc2c(nc(C3CC3)n2C)C1` reads -9.16%; that for `Cc1cnn(CC2CCCN2C(=O)c2cc3ccccc3c(=O)[nH]2)c1` (configuration not stated), -12.3%.
As to `CC(Cn1cccn1)NC(=O)NCc1ccc(C(N)=O)cc1` (configuration not stated), the cytotoxicity at 70.5 h was -15.4%.
Take `Cc1cc(CN2CCN(C(=O)c3sccc3C3CC3)CC2)no1`: the cytotoxicity at 70.5 h was -7.26%.
For the molecule `Cc1ccc(C(=O)NC2CCN(C(=O)Nc3ccncc3)CC2)o1`, the cytotoxicity at 70.5 h is -13.5%.
Consider `CCn1ccnc1CN1CCN(CC(O)c2cccc(F)c2)CC1` (configuration not stated), for which the cytotoxicity at 70.5 h was -5.97%.
Consider `Cc1cnn(CC2CN(Cc3nc4ccccc4o3)CCO2)c1` (configuration not stated), for which the cytotoxicity at 70.5 h is -12.1%.
Turning to `Cc1cnn(CC2CN(Cc3nc(C)c4ccccc4n3)CCO2)c1` (configuration not stated), the cytotoxicity at 70.5 h was -7.25%.
On to `CC(C)c1nc2c(n1C)CCN(CC(=O)Nc1cccnc1)C2`, for which the cytotoxicity at 70.5 h is -9.65%.
Consider `Cc1ccc(C(O)CN2CCN(Cc3nccn3C)CC2)cc1C` (configuration not stated), for which the cytotoxicity at 70.5 h worked out at 2%.
`CC(C)Oc1ccc(C(=O)N2CCC(Nc3cccnn3)CC2)cn1`: the cytotoxicity at 70.5 h is -5.88%.
Regarding `O=C(c1ccc(NC2CC2)nc1)N1CCC(Nc2cccnn2)CC1`, the cytotoxicity at 70.5 h was -8.71%.
The value for `Cc1cnn(CC2CCCCN2C(=O)c2nccnc2N)c1` (configuration not stated) was -4.52%; that for `CC(C)c1nc2c(n1C)CCN(CC(=O)Nc1ccncc1)C2` was -7.84%.
For `O=C(c1ccccc1-n1cccn1)N1CCC(Nc2cccnn2)CC1`, the cytotoxicity at 70.5 h was -8.8%.
In the case of `O=C(CCc1c(F)cccc1F)N1CCCCC1Cn1cccn1` (configuration not stated), the cytotoxicity at 70.5 h turned out to be 1.38%.
For the molecule `O=C(CCc1ccccc1)N1CCCCC1Cn1cccn1` (configuration not stated), the cytotoxicity at 70.5 h stood at 11.8%.
For `O=C(CCc1ccc2c(c1)OCO2)N1CCCCC1Cn1cccn1` (configuration not stated), the cytotoxicity at 70.5 h is -8.55%.
In the case of `Cc1cnn(CC2CCCN2C(=O)c2nccnc2N)c1` (configuration not stated), the cytotoxicity at 70.5 h was -6.62%.
The value for `CCC1CCCCN1C(=O)c1ccnc(N(C)C)c1` (configuration not stated) was -0.362%; that for `O=C(NCCCn1ccnc1)NCC(c1ccco1)N1CCCC1` (configuration not stated) was 5.06%; that for `CCc1nc(C2CCCN(C(=O)c3cccc(Cl)c3)C2)no1` (configuration not stated) was -1.41%.
On to `CCn1cc(NC(=O)NCC(C)(C)N2CCc3ccccc3C2)cn1`, for which the cytotoxicity at 70.5 h came to 13.8%.
As to `CCN(Cc1ccccc1)Cc1nc2c(cnn2C)c(=O)[nH]1`, the cytotoxicity at 70.5 h was found to be 17%.
Turning to `O=C(NCc1ccnc(-n2cccn2)c1)C1CC(=O)N(CC2CC2)C1` (configuration not stated), the cytotoxicity at 70.5 h is -8.83%.
Consider `CN(C)c1cc(C(=O)N2CCCCC2CNS(C)(=O)=O)ccn1` (configuration not stated), for which the cytotoxicity at 70.5 h worked out at 0.448%.
Regarding `O=C(NCCCn1cccn1)NCC(c1ccco1)N1CCCC1` (configuration not stated), the cytotoxicity at 70.5 h was -2.3%.
In the case of `CCC(CNC(=O)Nc1cnn(CC)c1)N1CCc2ccccc2C1` (configuration not stated), the cytotoxicity at 70.5 h is -4.26%.
For `CCN(Cc1nc2c(cnn2C)c(=O)[nH]1)Cc1ccccc1Cl`, the cytotoxicity at 70.5 h is 0.498%.
As to `CCN(Cc1cccc(C)c1)Cc1nc2c(cnn2C)c(=O)[nH]1`, the cytotoxicity at 70.5 h was -2.57%.
Consider `CC(C)c1nnc(NC(=O)NCc2ccc(CO)c(F)c2)s1`, for which the cytotoxicity at 70.5 h is -13.4%.
As to `COCCNC(=O)NCCc1ccn(-c2ccccc2)n1`, the cytotoxicity at 70.5 h is -10.9%.
As to `COc1ccc(CN2CCCC2Cn2nc(C)nc2C)cc1F` (configuration not stated), the cytotoxicity at 70.5 h is -18.3%.
The value for `NC(=O)c1csc(C(=O)N2CCCC(n3ccnc3)C2)c1` (configuration not stated) was -8.21%; that for `Cn1ccnc1CN1CCCCC1Cn1cccn1` (configuration not stated) was 11%.
The result for `Cc1cnn(CC2CCCN2C(=O)c2ccc3cc[nH]c3c2)c1` (configuration not stated) reads 0.784%; that for `Cc1noc(C)c1CNc1cc(N2CCCC2CO)ncn1` (configuration not stated), -5.89%; that for `O=C(CCOc1cccc(F)c1)N1CCCC(n2cncn2)C1` (configuration not stated), -6.87%.
As for `c1ccc(-c2ncc(CNC3CCc4ncnn4C3)cn2)cc1` (configuration not stated), the cytotoxicity at 70.5 h was -11%.
For the molecule `CC(C)Cc1cc(C(=O)N2CCCC(n3cncn3)C2)[nH]n1` (configuration not stated), the cytotoxicity at 70.5 h was -7.4%.
Take `Cc1csc(C2CCCCN2C(=O)CN(C)C2CC2)n1` (configuration not stated): the cytotoxicity at 70.5 h is -8.97%.
The value for `Cc1cnn(CC2CCCCN2Cc2nnc(C3CC3)n2C)c1` (configuration not stated) was -6.92%; that for `CCOC1CCCN(C(=O)NCCc2ccn(-c3ccccc3)n2)C1` (configuration not stated) was 9.56%.
Turning to `Cc1cnc(CN(C)CC2CCCN2c2cccnn2)cn1` (configuration not stated), the cytotoxicity at 70.5 h is 14.1%.
Regarding `CCn1cc(NC(=O)NCC(O)CN2CCc3ccccc3C2)cn1` (configuration not stated), the cytotoxicity at 70.5 h was determined as 11.8%.
Take `CC(=O)Nc1nc(CN2CCCC2Cn2cc(C)cn2)cs1` (configuration not stated): the cytotoxicity at 70.5 h is 30.3%.
`CC(=O)Nc1nc(CN2CCOC(Cn3cc(C)cn3)C2)cs1` (configuration not stated): the cytotoxicity at 70.5 h is -7.56%.
Regarding `O=C(NCCc1ccn(-c2ccccc2)n1)N1CCC1`, the cytotoxicity at 70.5 h is -2.97%.
For `Cn1ccnc1CN1CCN(CC(O)c2cccc(F)c2)CC1` (configuration not stated), the cytotoxicity at 70.5 h was -12.2%.
The value for `CCN1CC(C(=O)NCc2ccccc2-n2cccn2)CC1=O` (configuration not stated) was -10.2%.
For `CCN(Cc1cccc(Cl)c1)Cc1nc2c(cnn2C)c(=O)[nH]1`, the cytotoxicity at 70.5 h was -7.7%.
As to `CC(C)c1nc2c(n1C)CCN(CC(=O)Nc1nccs1)C2`, the cytotoxicity at 70.5 h was -24.8%.
On to `Cc1ccc(NC(=O)N2CCC(NC(=O)c3ccc(C)o3)CC2)cc1`, for which the cytotoxicity at 70.5 h was -11.5%.
Consider `CS(=O)(=O)N1CCN(CC(O)COc2ccc(F)cc2)CC1` (configuration not stated), for which the cytotoxicity at 70.5 h was -11.1%.
As for `O=C(c1cc(F)ccc1F)C1CCN(C(=O)c2ccc(=O)[nH]n2)CC1`, the cytotoxicity at 70.5 h is -9.24%.
The value for `CCN1CCN(C2CCN(Cc3nnc(C(C)(C)C)o3)CC2)C1=O` was -11.1%; that for `Cc1cnn(CC2CCCN2C(=O)c2cc3ccccc3[nH]c2=O)c1` (configuration not stated) was 8.93%.
In the case of `CC(=O)Nc1nc(C(=O)N2CCCC2Cn2cc(C)cn2)cs1` (configuration not stated), the cytotoxicity at 70.5 h is -10.5%.
With `Cc1cnn(CC2CCCCN2C(=O)c2ccc3[nH]nnc3c2)c1` (configuration not stated), the cytotoxicity at 70.5 h is -11.6%.
The value for `Cc1nnc(CN2CCN(CC(O)c3cccc(F)c3)CC2)n1C` (configuration not stated) was -15.6%.
On to `CCc1nc(C2CCCN(C(=O)c3ccc4c(c3)nnn4C)C2)no1` (configuration not stated), for which the cytotoxicity at 70.5 h is -7.83%.
With `CCc1n[nH]c(C2CN(C(=O)c3cnc[nH]3)CCO2)n1` (configuration not stated), the cytotoxicity at 70.5 h is -15.6%.
For `O=C(c1cc(F)ccc1F)C1CCN(C(=O)c2cccnc2O)CC1`, the cytotoxicity at 70.5 h is -16.4%.
Consider `O=C(NCCn1ccnc1)NCC(c1ccco1)N1CCCCC1` (configuration not stated), for which the cytotoxicity at 70.5 h is -9.78%.
Regarding `CC1(C)CN(C(=O)NCCc2ccn(-c3ccccc3)n2)CCO1`, the cytotoxicity at 70.5 h was -12.4%.
For `COc1cccc(CCC(=O)N2CCCCC2Cn2cccn2)c1` (configuration not stated), the cytotoxicity at 70.5 h was -11.2%.
The result for `CCn1ccnc1CN1CCCN(C(=O)Cc2ccc(C)nc2)CC1` reads -14.5%.
The result for `CCn1ccnc1CN1CCCN(C(=O)Cn2nc(C)cc2C)CC1` reads -19.3%; that for `Cc1nc(CN2CCOC(Cn3cncn3)C2)nc2ccccc12` (configuration not stated), -16.8%.
